Reference: patent publication US9617276B2, “Compounds and methods for treating AIDS and HIV infections” (priority 2009, dated 2017)
Like-named read-outs stand apart in the source and are kept apart here.

What was measured:
HIV-1 [1] = conditions: prior inhibitors; read-out: ID50 (the source's name); cited from earlier work
HIV-1NL4-3 [2] = test: p24 Gag inhibition in MT-4 cells, HIV-1NL4-3; format: cell-based; conditions: Human immunodeficiency virus 1, MT4, read-out: EC50 (μM), HIV-1NL4-3, Table 9, mean ± 1 SD
Description: (§1) All assays were performed in duplicate or triplicate. […] All assays were performed in duplicate or triplicate.

HIV-1NL4-3 [3] = test: in vitro selection of PI-resistant HIV-1 variants in MT-4 cells; format: cell-based; conditions: HIV-1NL4-3 in MT-4 cells, increasing drug concentrations
Excerpt: The culture supernatants were harvested on day 7 and used to infect fresh MT-4 cells for the next round of culture in the presence of increasing concentrations of each drug.

HIV-1216-P50 = test: microbe, parasite or virus in culture; format: cell-based, HIV-1
Description: (§2) Briefly, MT-2 cells (2×10^4/ml) were exposed to 100 50% tissue culture infectious doses (TCID50S) of HIV-1LAI, in the presence or absence of various concentrations of drugs in 96-well microculture plates and were incubated at 37° C. for 7 days. After 100 μl of the medium was removed from each well, 3-(4,5-dimetylthiazol-2-yl)-2,5-diphenyltetrazolium bromide (MTT) solution (10 μl, 7.5 mg/ml in phosphate-buffered saline) was added to each well in the plate, followed by incubation at 37° C. for 3 h. […] All assays were performed in duplicate or triplicate. […] To determine the drug susceptibility of certain laboratory HIV-1 strains, MT-4 cells were used as target cells. In brief, MT-4 cells (10^5/ml) were exposed to 100 TCID50S of drug-resistant HIV-1 strains in the presence or absence of various concentrations of drugs and on day 7 of culture, the supernatant was harvested and the amounts of p24 Gag protein were determined. […] All assays were performed in duplicate or triplicate.
(§3) Numbers in parentheses represent n-fold changes in EC50s for each isolate compared to the EC50s for wild-type HIV-1NL4-3.

HIV-1286-1μM = test: microbe, parasite or virus in culture; format: cell-based, HIV-1
Description: as §2, §3

HIV-1396-1μM = test: microbe, parasite or virus in culture; format: cell-based, HIV-1
Description: as §2, §3

HIV-1246-1μM = test: microbe, parasite or virus in culture; format: cell-based, HIV-1
Description: as §2, §3

HIV-1 protease = target: T1, HIV-1 protease (Human immunodeficiency virus type 1 group M subtype B, UniProt P04585); test: HIV protease enzyme inhibition, fluorometric assay of Toth and Marshall; format: biochemical; conditions: Ki, Table 2
T1 construct: A simple, continuous fluorometric assay for HIV protease
Description: (§4) The inhibitory potencies of acyclic and cyclic inhibitors were measured by the assay protocol of Toth and Marshall (Toth, M. V.; Marshall, G. R. A simple, continuous fluorometric assay for HIV protease. Int. J. Pep. Protien Res. 1990, 36, 544-55).

cytotoxicity CC50 = format: cell-based, Human; conditions: human
HIV-1LAI = test: drug susceptibility, MT-2 cells, MTT assay, HIV-1LAI; format: cell-based
Description: as §1
Each selectivity index denotes a ratio of CC50 to EC50 against HIV-1LAI N.D., not done.

HIV-1 [4] = test: antiviral assay (IC50); format: cell-based; conditions: Human immunodeficiency virus 1, Table 2; read-out: IC50
Description: as §4

[5] = compared to wild-type HIV-1NL4-3

Structure (SMILES)	IC50 (HIV-1 [1])	EC50 (HIV-1NL4-3 [2])	passage by which HIV-1 variants replicating in the presence of 1 μM drug emerged (HIV-1NL4-3 [3])	EC50 (HIV-1216-P50; Human immunodeficiency virus 1, MT4, read-out: EC50 (μM), HIV-1216-p50)	n-fold change in EC50, HIV-1216-p50 (HIV-1216-P50; [5])	EC50 (HIV-1286-1μM; Human immunodeficiency virus 1, MT4, read-out: EC50 (μM), HIV-1286-1 μM)	n-fold change in EC50, HIV-1286-1 μM (HIV-1286-1μM; [5])	EC50 (HIV-1396-1μM; Human immunodeficiency virus 1, MT4, read-out: EC50 (μM), HIV-1396-1 μM)	n-fold change in EC50, HIV-1396-1 μM (HIV-1396-1μM; [5])	EC50 (HIV-1246-1μM; Human immunodeficiency virus 1, MT4, read-out: EC50 (μM), HIV-1246-1 μM)	n-fold change in EC50, HIV-1246-1 μM (HIV-1246-1μM; [5])	Ki (HIV-1 protease)	CC50 (cytotoxicity CC50)	EC50 (HIV-1LAI; Human immunodeficiency virus 1, MT2, read-out: EC50 (μM) for HIV-1LAI)	Selectivity Index (HIV-1LAI; ratio of CC50 to EC50 against HIV-1LAI)	IC50 (HIV-1 [4])
COc1ccc(S(=O)(=O)N(CC(C)C)CC(O)C(Cc2ccccc2)NC(=O)OC2COC3OCCC23)cc1 (stereo not shown) [Compound 2, TMC-126]	1.2 nM															
COc1ccc2c(c1)OCC=CCCCCN(CC(O)C(Cc1ccccc1)NC(=O)OC1COC3OCCC13)S2(=O)=O (stereo not shown) [Compound 14d]		0.017 ± 0.005 µM	33 passages	0.24 ± 0.06 µM	(14)	> 1 µM	> 59	0.52 ± 0.07 µM	(31)	0.37 ± 0.013 µM	(22)	< 1 nM	44900 ± 4100 nM	0.014 ± 0.001 µM	3,200	< 100 nM
